Test results taken from patent US11084823B2, “Substituted pyrrolo[2,1-f][1,2,4]triazines as kinase inhibitors” (Daewoong Pharmaceutical Co., Ltd., priority 2017, dated 2021).

Columns and labels:
[1] = biological target: Recombinant purified human BTK (Homo sapiens (Human), UniProt Q06187); assay: BTK kinase inhibitory activity, ADP-Glo kinase assay kit (Promega V9071); format: biochemical; conditions: ATP 10 uM, 8 ng BTK per reaction, 1 hour at 30° C., chemiluminescence
Experimental: (§1) JAK3 and BTK kinase inhibitory activities were measured for the compounds prepared in the above Examples through in vitro analysis on the ADP Glow (Glo) platform.
(§2) Specifically, the inhibitory activities of JAK3 and BTK kinase were measured using a JAK3 kinase assay kit (Promega, V9441) and a BTK kinase assay kit (Promega, V9071) which were purchased from Promega. Recombinant purified human JAK3 and BTK were diluted with 1× kinase reaction buffer (JAK3: 40 mM Tris-Cl, pH 7.5, 20 mM MgCl2, 0.1 mg/mL BSA and 50 uM DTT/BTK: 40 mM Tris-Cl, pH 7.5, 20 mM MgCl2, 0.1 mg/mL BSA, 2 mM MnCl2 and 50 uM DTT) and added to a 96 well plate (JAK3: final concentration of 4 ng per reaction/BTK: final concentration of 8 ng per reaction). […] After incubation (30° C.) for 1 hour, equivalent volume (25 uL per reaction) of ADP Glo was added and incubated (30° C.) for 40 minutes at room temperature. Then, a kinase detection reagent (50 uL per reaction) was added and incubated (30° C.) for 30 minutes at room temperature. The kinase activity was measured by chemiluminescence according to the instructions of ADP Glo kinase assay kit, and the inhibitory activity of the compounds according to the present invention was calculated.

[2] = biological target: Recombinant purified human JAK3 (Homo sapiens (Human), UniProt P52333); assay: JAK3 kinase inhibitory activity, ADP-Glo kinase assay kit (Promega V9441); format: biochemical; conditions: ATP 5 uM, 4 ng JAK3 per reaction, 1 hour at 30° C., chemiluminescence
Experimental: as §1, §2

Recombinant purified human JAK3, sequence (P52333 whole entry): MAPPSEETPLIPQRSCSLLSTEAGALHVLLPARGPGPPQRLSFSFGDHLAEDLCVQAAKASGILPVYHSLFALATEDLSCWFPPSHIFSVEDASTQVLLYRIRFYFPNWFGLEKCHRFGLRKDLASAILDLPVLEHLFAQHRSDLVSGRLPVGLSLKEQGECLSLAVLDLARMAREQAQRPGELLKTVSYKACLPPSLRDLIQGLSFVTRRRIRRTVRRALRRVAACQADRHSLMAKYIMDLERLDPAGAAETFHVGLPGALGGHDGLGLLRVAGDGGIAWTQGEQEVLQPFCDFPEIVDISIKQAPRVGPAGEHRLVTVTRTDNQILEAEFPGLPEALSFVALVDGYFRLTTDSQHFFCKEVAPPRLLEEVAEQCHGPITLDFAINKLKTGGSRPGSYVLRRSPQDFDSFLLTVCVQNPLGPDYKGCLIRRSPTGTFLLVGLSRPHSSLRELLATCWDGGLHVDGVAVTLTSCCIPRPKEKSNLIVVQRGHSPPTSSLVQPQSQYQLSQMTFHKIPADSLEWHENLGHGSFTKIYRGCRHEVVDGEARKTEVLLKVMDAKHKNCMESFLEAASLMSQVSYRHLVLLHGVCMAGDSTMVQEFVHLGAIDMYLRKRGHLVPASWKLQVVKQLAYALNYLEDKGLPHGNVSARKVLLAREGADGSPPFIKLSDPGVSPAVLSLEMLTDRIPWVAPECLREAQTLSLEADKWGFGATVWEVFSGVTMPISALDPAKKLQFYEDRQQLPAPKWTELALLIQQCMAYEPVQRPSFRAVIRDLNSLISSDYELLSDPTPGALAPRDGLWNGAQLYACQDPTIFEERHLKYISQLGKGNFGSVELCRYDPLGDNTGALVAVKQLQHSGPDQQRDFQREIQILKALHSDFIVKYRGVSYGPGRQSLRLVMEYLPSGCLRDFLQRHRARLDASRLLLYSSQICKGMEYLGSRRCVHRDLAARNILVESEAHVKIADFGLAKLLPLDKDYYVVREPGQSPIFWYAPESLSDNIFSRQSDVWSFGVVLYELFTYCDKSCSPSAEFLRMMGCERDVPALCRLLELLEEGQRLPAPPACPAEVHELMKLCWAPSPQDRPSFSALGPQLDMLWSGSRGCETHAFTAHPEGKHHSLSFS
Recombinant purified human BTK, sequence (Q06187 whole entry): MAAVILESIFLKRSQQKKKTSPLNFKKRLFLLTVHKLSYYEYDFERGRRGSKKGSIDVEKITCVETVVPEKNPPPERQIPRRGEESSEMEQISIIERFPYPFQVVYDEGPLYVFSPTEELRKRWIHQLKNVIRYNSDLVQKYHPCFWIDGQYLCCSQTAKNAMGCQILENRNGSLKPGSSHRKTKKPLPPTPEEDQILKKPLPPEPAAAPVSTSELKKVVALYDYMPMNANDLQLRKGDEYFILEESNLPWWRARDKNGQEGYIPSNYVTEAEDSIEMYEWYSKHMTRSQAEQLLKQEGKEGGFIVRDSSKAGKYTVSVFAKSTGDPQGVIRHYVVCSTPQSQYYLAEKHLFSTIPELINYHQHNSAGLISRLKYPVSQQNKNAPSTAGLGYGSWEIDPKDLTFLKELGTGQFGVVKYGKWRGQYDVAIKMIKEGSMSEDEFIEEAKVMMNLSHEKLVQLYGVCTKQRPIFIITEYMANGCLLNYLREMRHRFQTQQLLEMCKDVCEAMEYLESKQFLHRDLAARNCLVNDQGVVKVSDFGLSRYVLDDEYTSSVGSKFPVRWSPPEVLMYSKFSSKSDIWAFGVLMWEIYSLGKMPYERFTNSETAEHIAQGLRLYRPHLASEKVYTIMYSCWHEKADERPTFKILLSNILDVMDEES

Row | Structure (SMILES) | IC50 [1] [nM] | IC50 [2] [nM]
1 | C=CC(=O)Nc1ccc(F)c(Oc2nc(Nc3cnn(C4CC4)c3)nn3cccc23)c1 [Example 1, N-(3-((2-((1-cyclopropyl-1H-pyrazol-4-yl)amino)pyrrolo[2,1-f][1,2,4]triazin-4-yl)oxy)-4-fluorophenyl)acrylamide] | 13.6 | 1.1
2 | C=CC(=O)Nc1cccc(Oc2nc(Nc3ccc(N4CCN(C)CC4)cc3)nn3cccc23)c1 [Example 2, N-(3-((2-((4-(4-methylpiperazin-1-yl)phenyl)amino)pyrrolo[2,1-f][1,2,4]triazin-4-yl)oxy)phenyl)acrylamide] | 22.7 | 2.8
3 | C=CC(=O)Nc1cccc(Oc2nc(Nc3cnn(C)c3)nn3cccc23)c1 [Example 3, N-(3-((2-((1-methyl-1H-pyrazol-4-yl)amino)pyrrolo[2,1-f][1,2,4]triazin-4-yl)oxy)phenyl)acrylamide] | 12.7 | 0.6
4 | C=CC(=O)Nc1cccc(Oc2nc(Nc3cc(C)ns3)nn3cccc23)c1 [Example 5, N-(3-((2-((3-methylisothiazol-5-yl)amino)pyrrolo[2,1-f][1,2,4]triazin-4-yl)oxy)phenyl)acrylamide] | 8.7 | 0.6
5 | C=CC(=O)Nc1ccc(F)c(Oc2nc(Nc3ccn(C)c3)nn3cccc23)c1 [Example 9, N-(4-fluoro-3-((2-((1-methyl-1H-pyrrol-3-yl)amino)pyrrolo[2,1-f][1,2,4]triazin-4-yl)oxy)phenyl)acrylamide] | 243 | 16.8
6 | C=CC(=O)Nc1cccc(Oc2nc(Nc3cnn(C4CC4)c3)nn3cccc23)c1 [Example 11, N-(3-((2-((1-cyclopropyl-1H-pyrazol-4-yl)amino)pyrrolo[2,1-f][1,2,4]triazin-4-yl)oxy)phenyl)acrylamide] | 107 | 10.3
7 | C=CC(=O)Nc1ccc(F)c(Oc2nc(Nc3ccc(N(C)C)cc3)nn3cccc23)c1 [Example 12, N-(3-((2-((4-(dimethylamino)phenyl)amino)pyrrolo[2,1-f][1,2,4]triazin-4-yl)oxy)-4-fluorophenyl)acrylamide] | 7.5 | 0.7
8 | C=CC(=O)Nc1ccc(F)c(Oc2nc(Nc3ccc(Oc4ccccc4)cc3)nn3cccc23)c1 [Example 13, N-(4-fluoro-3-((2-((4-phenoxyphenyl)amino)pyrrolo[2,1-f][1,2,4]triazin-4-yl)oxy)phenyl)acrylamide] | 622 | 41.7
9 | C=CC(=O)Nc1cccc(Oc2nc(Nc3ccc(OC)cc3)nn3cccc23)c1 [Example 17, N-(3-((2-((4-methoxyphenyl)amino)pyrrolo[2,1-f][1,2,4]triazin-4-yl)oxy)phenyl)acrylamide] | 68.6 | 5.9
10 | C=CC(=O)Nc1cccc(Oc2nc(Nc3ccc(C(=O)N4CCOCC4)cc3)nn3cccc23)c1 [Example 18, N-(3-((2-((4-(morpholine-4-carbonyl)phenyl)amino)pyrrolo[2,1-f][1,2,4]triazin-4-yl)oxy)phenyl)acrylamide] | 37.8 | 2.2
11 | C=CC(=O)Nc1cccc(Oc2nc(Nc3ccn(C)n3)nn3cccc23)c1 [Example 20, N-(3-((2-((1-methyl-1H-pyrazol-3-yl)amino)pyrrolo[2,1-f][1,2,4]triazin-4-yl)oxy)phenyl)acrylamide] | 647 | 57.7
12 | C=CC(=O)Nc1cccc(Oc2nc(Nc3ccc(CN(C)C)cc3)nn3cccc23)c1 [Example 21, N-(3-((2-((4-((dimethylamino)methyl)phenyl)amino)pyrrolo[2,1-f][1,2,4]triazin-4-yl)oxy)phenyl)acrylamide] | 104 | 11.7
13 | C=CC(=O)Nc1cccc(Oc2nc(Nc3ccc(N4CCOCC4)cc3)nn3cccc23)c1 [Example 22, N-(3-((2-((4-morpholinophenyl)amino)pyrrolo[2,1-f][1,2,4]triazin-4-yl)oxy)phenyl)acrylamide] | 35.4 | 5.3
14 | C=CC(=O)Nc1cccc(Oc2nc(Nc3ccc(N(C)C)cc3)nn3cccc23)c1 [Example 23, N-(3-((2-((4-(dimethylamino)phenyl)amino)pyrrolo[2,1-f][1,2,4]triazin-4-yl)oxy)phenyl)acrylamide] | 60.2 | 10.4
15 | C=CC(=O)Nc1ccc(F)c(Oc2nc(Nc3ccc(N4CCN(C)CC4)cc3)nn3cccc23)c1 [Example 25, N-(4-fluoro-3-((2-((4-(4-methylpiperazin-1-yl)phenyl)amino)pyrrolo[2,1-f][1,2,4]triazin-4-yl)oxy)phenyl)acrylamide] | 7.9 | 1.4
16 | C=CC(=O)Nc1ccc(F)c(Oc2nc(Nc3cnn(CC(F)F)c3)nn3cccc23)c1 [Example 26, N-(3-((2-((1-(2,2-difluoroethyl)-1H-pyrazol-4-yl)amino)pyrrolo[2,1-f][1,2,4]triazin-4-yl)oxy)-4-fluorophenyl)acrylamide] | 6.2 | 0.9
17 | C=CC(=O)Nc1ccc(F)c(Oc2nc(Nc3cnn(C)c3)nn3cccc23)c1 [Example 27, N-(4-fluoro-3-((2-((1-methyl-1H-pyrazol-4-yl)amino)pyrrolo[2,1-f][1,2,4]triazin-4-yl)oxy)phenyl)acrylamide] | 5 | 0.7
18 | C=CC(=O)Nc1ccc(F)c(Oc2nc(Nc3ccc(OC)cc3)nn3cccc23)c1 [Example 28, N-(4-fluoro-3-((2-((4-methoxyphenyl)amino)pyrrolo[2,1-f][1,2,4]triazin-4-yl)oxy)phenyl)acrylamide] | 52 | 9.2
19 | C=CC(=O)Nc1ccc(F)c(Oc2nc(Nc3ccc(C(=O)N4CCOCC4)cc3)nn3cccc23)c1 [Example 29, N-(4-fluoro-3-((2-((4-(morpholine-4-carbonyl)phenyl)amino)pyrrolo[2,1-f][1,2,4]triazin-4-yl)oxy)phenyl)acrylamide] | 23.1 | 2
20 | C=CC(=O)Nc1ccc(F)c(Oc2nc(Nc3ccsc3)nn3cccc23)c1 [Example 30, N-(4-fluoro-3-((2-((thiophen-3-yl)amino)pyrrolo[2,1-f][1,2,4]triazin-4-yl)oxy)phenyl)acrylamide] | 66.6 | 7.6

Now from value to compound:

Row | IC50 [1] [nM] | IC50 [2] [nM] | Structure (SMILES)
21 | 13.4 | 0.7 | C=CC(=O)Nc1cccc(Oc2nc(Nc3cnn(CC(F)F)c3)nn3cccc23)c1 [Example 4, N-(3-((2-((1-(2,2-difluoroethyl)-1H-pyrazol-4-yl)amino)pyrrolo[2,1-f][1,2,4]triazin-4-yl)oxy)phenyl)acrylamide]
22 | 10 | 0.5 | C=CC(=O)Nc1cccc(Oc2nc(Nc3cnn(CC)c3)nn3cccc23)c1 [Example 6, N-(3-((2-((1-ethyl-1H-pyrazol-4-yl)amino)pyrrolo[2,1-f][1,2,4]triazin-4-yl)oxy)phenyl)acrylamide]
23 | 10.7 | 0.5 | C=CC(=O)Nc1ccc(F)c(Oc2nc(Nc3cc(C)ns3)nn3cccc23)c1 [Example 7, N-(4-fluoro-3-((2-((3-methylisothiazol-5-yl)amino)pyrrolo[2,1-f][1,2,4]triazin-4-yl)oxy)phenyl)acrylamide]
24 | 7.7 | 0.6 | C=CC(=O)Nc1ccc(F)c(Oc2nc(Nc3cnn(CC)c3)nn3cccc23)c1 [Example 8, N-(3-((2-((1-ethyl-1H-pyrazol-4-yl)amino)pyrrolo[2,1-f][1,2,4]triazin-4-yl)oxy)-4-fluorophenyl)acrylamide]
25 | 113 | 9.6 | C=CC(=O)Nc1ccc(F)c(Oc2nc(Nc3cnn(CC(C)C)c3)nn3cccc23)c1 [Example 10, N-(4-fluoro-3-((2-((1-isobutyl-1H-pyrazol-4-yl)amino)pyrrolo[2,1-f][1,2,4]triazin-4-yl)oxy)phenyl)acrylamide]
26 | 43.3 | 9.8 | C=CC(=O)Nc1ccc(F)c(Oc2nc(Nc3ccc4ncsc4c3)nn3cccc23)c1 [Example 14, N-(3-((2-((benzo[d]thiazol-6-yl)amino)pyrrolo[2,1-f][1,2,4]triazin-4-yl)oxy)-4-fluorophenyl)acrylamide]
27 | 104 | 15.5 | C=CC(=O)Nc1ccc(F)c(Oc2nc(Nc3cccnc3)nn3cccc23)c1 [Example 15, N-(4-fluoro-3-((2-((pyridin-3-yl)amino)pyrrolo[2,1-f][1,2,4]triazin-4-yl)oxy)phenyl)acrylamide]
28 | 123 | 20 | C=CC(=O)Nc1cccc(Oc2nc(Nc3ccc(C(C)C)cc3)nn3cccc23)c1 [Example 16, N-(3-((2-((4-isopropylphenyl)amino)pyrrolo[2,1-f][1,2,4]triazin-4-yl)oxy)phenyl)acrylamide]
29 | 62.9 | 5.3 | C=CC(=O)Nc1cccc(Oc2nc(Nc3ccsc3)nn3cccc23)c1 [Example 19, N-(3-((2-((thiophen-3-yl)amino)pyrrolo[2,1-f][1,2,4]triazin-4-yl)oxy)phenyl)acrylamide]
30 | 166 | 18.8 | C=CC(=O)Nc1cccc(Oc2nc(Nc3cc4n(n3)CCN(C)C4)nn3cccc23)c1 [Example 24, N-(3-((2-((5-methyl-4,5,6,7-tetrahydropyrazolo[1,5-a]pyrazin-2-yl)amino)pyrrolo[2,1-f][1,2,4]triazin-4-yl)oxy)phenyl)acrylamide]
